Test: xn = mol fraction of the nth substance listed

CCCC(O)CC (stereo not drawn) + CCO
298.15 K, 101.33 kPa
Conditions | viscosity [mPa·s]
x2 = 0.1028 | 4.236
x2 = 0.2116 | 3.975
x2 = 0.3124 | 3.658
x2 = 0.4135 | 3.218
x2 = 0.5018 | 2.88
x2 = 0.6027 | 2.459
x2 = 0.6987 | 2.054
x2 = 0.7994 | 1.673
x2 = 0.9044 | 1.363

OCCCl + CCOC(C)=O
viscosity [mPa·s], 101.33 kPa
Conditions | x1 = 0.1033 | x1 = 0.2006 | x1 = 0.3231 | x1 = 0.4048 | x1 = 0.5015 | x1 = 0.6007 | x1 = 0.7022 | x1 = 0.8 | x1 = 0.9
298.15 K | 0.485 | 0.542 | 0.643 | 0.729 | 0.864 | 1.065 | 1.326 | 1.689 | 2.242
303.15 K | 0.454 | 0.51 | 0.601 | 0.679 | 0.8 | 0.967 | 1.2 | 1.517 | 1.98
308.15 K | 0.43 | 0.482 | 0.565 | 0.635 | 0.746 | 0.894 | 1.098 | 1.369 | 1.776

NC=O + CN(C)C=O
298.15 K, 101.3 kPa
Conditions | viscosity [mPa·s]
x1 = 0.1 | 1.041
x1 = 0.2 | 1.27
x1 = 0.3 | 1.472
x1 = 0.4 | 1.698
x1 = 0.5 | 1.939
x1 = 0.6 | 2.198
x1 = 0.7 | 2.483
x1 = 0.8 | 2.817
x1 = 0.9 | 3.191

OCCCO + CN(C)C=O
308.15 K, 101 kPa
Conditions | viscosity [mPa·s]
x1 = 0.0229 | 0.76
x1 = 0.0468 | 0.834
x1 = 0.0914 | 0.904
x1 = 0.2048 | 1.267
x1 = 0.3032 | 1.748
x1 = 0.397 | 2.4
x1 = 0.4994 | 3.516
x1 = 0.597 | 5.056
x1 = 0.699 | 7.606
x1 = 0.7983 | 11.93
x1 = 0.9001 | 17.75
x1 = 0.9477 | 20.44

CCCC(O)CC (stereo not drawn) + CO
298.15 K, 101.33 kPa
Conditions | viscosity [mPa·s]
x2 = 0.1014 | 4.298
x2 = 0.2029 | 3.945
x2 = 0.3111 | 3.363
x2 = 0.4188 | 2.737
x2 = 0.503 | 2.278
x2 = 0.6078 | 1.758
x2 = 0.7072 | 1.383
x2 = 0.7994 | 1.054
x2 = 0.9014 | 0.7655

OCCCl + CO
viscosity [mPa·s], 101.33 kPa
Conditions | x1 = 0.096 | x1 = 0.2122 | x1 = 0.2939 | x1 = 0.3927 | x1 = 0.4944 | x1 = 0.598 | x1 = 0.6969 | x1 = 0.7977 | x1 = 0.8997
298.15 K | 0.615 | 0.777 | 0.91 | 1.099 | 1.321 | 1.591 | 1.869 | 2.13 | 2.45
303.15 K | 0.572 | 0.721 | 0.834 | 1.003 | 1.195 | 1.434 | 1.632 | 1.884 | 2.14
308.15 K | 0.529 | 0.662 | 0.767 | 0.913 | 1.084 | 1.287 | 1.456 | 1.675 | 1.89

OCCCl + COC(C)=O
viscosity [mPa·s], 101.33 kPa
Conditions | x1 = 0.1021 | x1 = 0.2013 | x1 = 0.3049 | x1 = 0.4029 | x1 = 0.5056 | x1 = 0.6047 | x1 = 0.7046 | x1 = 0.7987 | x1 = 0.9014
298.15 K | 0.438 | 0.501 | 0.587 | 0.691 | 0.844 | 1.039 | 1.324 | 1.688 | 2.234
303.15 K | 0.414 | 0.472 | 0.555 | 0.645 | 0.787 | 0.954 | 1.197 | 1.518 | 1.978
308.15 K | 0.392 | 0.447 | 0.519 | 0.606 | 0.726 | 0.881 | 1.094 | 1.369 | 1.762

NC=O + COCCO
101 kPa
Conditions | viscosity [mPa·s]
303 K, x1 = 0.1585 | 1.679
303 K, x1 = 0.4194 | 2.286
303 K, x1 = 0.5295 | 2.443
303 K, x1 = 0.6283 | 2.625
303 K, x1 = 0.717 | 2.859
303 K, x1 = 0.8711 | 2.837
303 K, x1 = 0.9381 | 2.945
303.15 K, x1 = 0.1785 | 1.795
313 K, x1 = 0.2971 | 1.632
313 K, x1 = 0.4194 | 1.841
313 K, x1 = 0.5295 | 1.958
313 K, x1 = 0.6283 | 2.067
313 K, x1 = 0.717 | 2.223
313 K, x1 = 0.7978 | 2.339
313 K, x1 = 0.8711 | 2.226
318.15 K, x1 = 0.5726 | 1.885

O[C@@H]1CO[C@H]2[C@@H]1OC[C@@H]2O + C[N+](C)(C)CC(=O)[O-]
Conditions | viscosity [mPa·s]
298.15 K, 101.33 kPa, x1 = 0.7 | 513.3

OCCCO + C[N+](C)(C)CCO.[Cl-]
viscosity [mPa·s], 101.3 kPa
Conditions | 293.15 K | 298.15 K | 298.2 K | 303.15 K | 308.15 K | 308.2 K | 313.15 K | 318.15 K | 318.2 K | 323.15 K
x1 = 0.7509 | 69.74 | 55.76 | – | 45.4 | 37.43 | – | 31.35 | 26.52 | – | 22.62
x1 = 0.8001 | 61.31 | 49.49 | – | 40.7 | 33.88 | – | 27.31 | 23.03 | – | 19.63
x1 = 0.8328 | 57.14 | 46.14 | – | 37.62 | 30.92 | – | 25.67 | 21.53 | – | 18.26
x1 = 0.8567 | 53.95 | 42.83 | – | 34.73 | 28.58 | – | 24.01 | 20.38 | – | 17.26
x2 = 0.1667 | – | – | 49.5 | – | – | 36.9 | – | – | 27.6 | –
x2 = 0.2 | – | – | – | 34.45 | 28.87 | – | 24.21 | 20.52 | – | 17.57
x2 = 0.25 | – | – | – | 40.05 | 33.17 | – | 27.84 | 23.62 | – | 20.25

CCN(CC)CC(=O)Nc1c(C)cccc1C + Cc1ccc(C(C)C)c(O)c1
100 kPa, x2 = 0.5
Conditions | viscosity [mPa·s]
293.15 K | 177.3
298.15 K | 111.3
303.15 K | 73.71
308.15 K | 51.05
313.15 K | 36.76
318.15 K | 27.36
323.15 K | 20.98

Cc1cccc(C(C)C)c1 + Cc1ccc(C(C)C)cc1
101 kPa, x2 = 0.4
Conditions | viscosity [mPa·s]
293.15 K | 0.8
313.15 K | 0.72

CC(C)C#N + Cc1ccc(C)cc1
viscosity [mPa·s], 101 kPa
Conditions | x2 = 0.1003 | x2 = 0.2009 | x2 = 0.3014 | x2 = 0.4041 | x2 = 0.4978 | x2 = 0.6013 | x2 = 0.7001 | x2 = 0.8003 | x2 = 0.8998
303.15 K | 0.474 | 0.482 | 0.484 | 0.498 | 0.505 | 0.519 | 0.531 | 0.55 | 0.558
308.15 K | 0.444 | 0.453 | 0.453 | 0.461 | 0.473 | 0.485 | 0.495 | 0.507 | 0.519

CC(C)C#N + Cc1ccccc1
viscosity [mPa·s], 101 kPa
Conditions | x2 = 0.1025 | x2 = 0.2009 | x2 = 0.2987 | x2 = 0.4001 | x2 = 0.4983 | x2 = 0.6008 | x2 = 0.6993 | x2 = 0.801 | x2 = 0.8983
303.15 K | 0.463 | 0.465 | 0.468 | 0.474 | 0.481 | 0.49 | 0.499 | 0.509 | 0.517
308.15 K | 0.434 | 0.437 | 0.439 | 0.445 | 0.45 | 0.46 | 0.468 | 0.478 | 0.486

From the CheMixHub viscosity set
